How the values were obtained:
Type in all cases: cell-based, human
JNK/SAPK = experiment: Western Blot, phosphorylation of JNK/SAPK in HaCaT cells; details: 500 μM, 0-30 min
Protocol: (§1) In the following, an investigation was to be conducted to determine whether a MAPK signalling pathway is activated by Sandalore® stimulation in skin cells, and if so, which pathway is involved. For detection, HaCaT cells were stimulated for 0-30 min with 500 μM of Sandalore®, and the proteins were then isolated and used in Western Blot assays.
Effect of Sandalore® stimulation on phosphorylation of MAP kinases in skin cells. A) Western Blot for investigating the phosphorylation of the MAP kinases in HaCaT cells stimulated for 0, 5, 15 and 30 min with Sandalore®(500 μM). In order to confirm uniform protein volume, ▪-tubulin was used as a control. ERK1/2: 42/44 kDa; p38: 43 kDa; JNK/SAPK: 46/54 kDA; ▪-tubulin: 52 kDa. B) Quantitative evaluation of p38 and ERK1/2 phosphorylation of HaCaT cells stimulated for 30 min with Sandalore®(500 μM) or additionally with the p38 inhibitor 5B203580 (10 μM) or ERK1/2 inhibitor U0126 (10 μM). For evaluation, the ratio of the phosphorylated (p) and unphosphorylated proteins was established and compared to that of untreated cells. Mean values including standard error. Mann-Whitney U test. *: p<0.05; ***: p<0.001. In C), the inhibitors of the respective other MAP kinase were used, and phosphorylation was compared to the cells stimulated with Sandalore® (500 μM) alone. Mean values including standard error. Mann-Whitney U test. *: p<0.05. […]

IL-1β = experiment: Quantitative real-time PCR of IL-1β in HaCaT cells; details: after 24 hours, 500 μM
Protocol: (§2) In order to investigate interleukin secretion, quantitative real-time PCR was first carried out. For this purpose, RNA from HaCaT cells was used that had previously been stimulated for 6 or 24 hours with Sandalore®. Detection was carried out with specific primers of various interleukins (IL-1α, IL-1β, IL-6, IL-8) and tumor necrosis factor (TNF▪). […] In order to corroborate the results, an ELISA assay was carried out, in which the secreted interleukins in the supernatant of the cells can be detected by means of an immunological reaction. By means of the assay used, secretion of the interleukins (IL-1α, IL-1β, IL-2, IL-4, IL-6, IL-8, IL-10, IL-12, and IL-17α), TNFα, γ-interferon (IFNγ), and granulocyte macrophage colony-stimulating factor (GMCSF) was investigated.
(§3) Investigation of interleukin secretion and phosphorylation of Akt protein kinase after Sandalore® stimulation. A) Investigation of the regulation of interleukins in HaCaT cells by means of qRT-PCR after stimulation with Sandalore® (500 μM) for 6 h and 24 h. 0.1% DMSO was used as a control. GAPDH was used as a reference gene, and the relative expression between untreated and stimulated cells was determined. Mean values including standard error. n=3 experiments. […] The measured optical density of the treated cells at 450 nm was expressed relative to the background. […]

IL-8 = experiment: ELISA of secreted IL-8 in supernatant of HaCaT cells; details: 24-hour stimulation, 500 μM
Protocol: as §2, §3

IL-1α [1] = experiment: ELISA of secreted IL-1α in supernatant of HaCaT cells; details: 24-hour stimulation, 500 μM
Protocol: as §2, §3

IL-1α [2] = experiment: Quantitative real-time PCR of IL-1α in HaCaT cells
Protocol: as §2, §3

[3] = test system: IL-6, IL-8, tumor necrosis factor; experiment: Quantitative real-time PCR of the other interleukins in HaCaT cells; details: 6 or 24 hours, 500 μM
Protocol: as §2, §3

p38 MAPK = experiment: Western Blot, phosphorylation of p38 MAPK in HaCaT cells; details: 500 μM
Protocol: as §1
In order to reveal a possible interaction of the two MAPK signalling pathways, ERK1/2 phosphorylation in the presence of the p38 MAPK inhibitor SB203580 and p38 MAPK phosphorylation in the presence of the ERK1/2 MAPK inhibitor U0126 were investigated.
A) Western Blot for investigating the phosphorylation of the MAP kinases in HaCaT cells stimulated for 0, 5, 15 and 30 min with Sandalore®(500 μM). […] ERK1/2: 42/44 kDa; p38: 43 kDa; JNK/SAPK: 46/54 kDA; ▪-tubulin: 52 kDa. B) Quantitative evaluation of p38 and ERK1/2 phosphorylation of HaCaT cells stimulated for 30 min with Sandalore®(500 μM) or additionally with the p38 inhibitor 5B203580 (10 μM) or ERK1/2 inhibitor U0126 (10 μM). For evaluation, the ratio of the phosphorylated (p) and unphosphorylated proteins was established and compared to that of untreated cells. Mean values including standard error. Mann-Whitney U test. *: p<0.05; ***: p<0.001. In C), the inhibitors of the respective other MAP kinase were used, and phosphorylation was compared to the cells stimulated with Sandalore® (500 μM) alone. Mean values including standard error. Mann-Whitney U test. *: p<0.05. The Western Blot analyses were carried out with three different protein isolations.

CC1=CCC(CCC(C)C(C)O)C1(C)C (stereo not drawn) [Sandalore®]
phosphorylation of JNK/SAPK (JNK/SAPK): no phosphorylation of JNK/SAPK | increase of expression of IL-1β relative to the control (0.1% DMSO) (IL-1β): approx. 1700% | secretion of IL-8 relative to the control (0.1% DMSO) (IL-8): not significantly higher than the control | secretion of IL-1α relative to the control (0.1% DMSO) (IL-1α [1]): significantly increased secretion | increase of expression of IL-1α relative to the control (0.1% DMSO) (IL-1α [2]; after 24 hours, 500 μM): approx. 10,000% | expression of IL-1α (IL-1α [2]; summary statement): increased | expression rate of the other interleukins [3]: no increase in the expression rate | phosphorylation of p38 MAPK, quantification (p38 MAPK; 30-minute stimulation): significant increase | phosphorylation of p38 MAPK (p38 MAPK; within 5-30 min): increased phosphorylation
